Laboratory results as given in patent US12343326B2, “Psychoactive medicines and their use for treating psychiatric and neurological conditions and disorders” (Transcend Therapeutics, Inc., priority 2021, dated 2025).
“Also recorded” adds a separate entry of the source. Read-outs that look alike come from different tables or passages of the source.

Experiments:
[1] = test system: rats with reserpine-induced pain sensitivity; assay: Reserpine-induced fibromyalgia model, von Frey test; assay type: in vivo, rat; settings: 2C-B 10 and 20 mg/kg; duloxetine positive control; 60-min post-injection
Procedure: Reserpine (1 mg/kg/s.c.) is administered for 3 days to mimic chronic widespread pain and complex symptoms.
In this Example, male Sprague Dawley rats are tested in a behavioral model of FMA based on the protocol from Nakagura et al. (2009) Pain 146:26. This model uses three daily doses of reserpine (1 mg/kg, SC) or 0.5% acetic acid vehicle to reduce pain thresholds (i.e., increase pain perception) in the Von Frey Test (vFT, procedure outlined below).
Von Frey Test (vFT) procedure: Increasing pain thresholds in this test are consistent with a reduction in pain perception. Prior to the start of dosing, rats are tested for their baseline mechanical pain threshold. For von Frey measurements, animals are placed into wire bottom cubicles with opaque Plexiglas walls, allowing access to the underside of their paws. Animals are habituated to this environment for at least 30 minutes before the start of the von Frey filament application. Static allodynia is measured using Semmes-Weinstein von Frey filaments (Stoelting, Wood Dale, IL). Mechanical allodynia is tested by touching the plantar surface of the animals' left and right hind paws with von Frey filaments which deliver a calibrated amount of force. Each von Frey filament is presented perpendicularly to the plantar surface for approximately 6 seconds of constant application in either ascending or descending strength in a modified up-and-down method (Chaplan et al. (1994) J Neurosci. Meth. 53:55). Stimulation is presented at intervals of several seconds, allowing for apparent resolution of any behavioral responses to previous stimuli. A positive response is noted if the paw is sharply withdrawn. Flinching immediately upon removal of the hair is also considered a positive response. […]
VonFrey measurements: Animals were placed into wire bottom cubicles with opaque Plexiglas walls, allowing access to the underside of their paws. […] Static allodynia was measured using Semmes-Weinstein von Frey filaments (Stoelting, Wood Dale, IL). […] The average hindpaw thresholds were determined 60-min post-injection. […]

experienced drug users = settings: cited from earlier work
Male C57Bl/6 mice = assay: Cisplatin chemotherapy-induced peripheral neuropathy (CIPN) model, von Frey test; assay type: in vivo, mouse
Procedure: Cisplatin, a platinum-based chemotherapy agent has been used to reduce pain thresholds in a model of CIPN. Effects of acute (single higher dose) or sub-chronic (7 days repeated lower dose) 2C-B on pain thresholds were investigated in cisplatin-treated animals compared with vehicle or cisplatin-treated controls.
Methods: Male C57Bl/6 mice aged 12-16 weeks were used. Cisplatin (2.5 mg/kg) or vehicle was administered on days 1-5 and 11-15.
Vehicle, sub-chronic 2C-B (5 mg/kg once daily days 17-23) or acute 2C-B (20 mg/kg once on day 17) was then administered IP (N=16-18/group). VonFrey testing took place on day 17 (30 min post-dose) and days 21 and 24 (pre-dose) to monitor the effects of 2C-B in cisplatin treated animals, compared with animals receiving cisplatin+vehicle or vehicle+vehicle.
For von Frey measurements, animals were placed into wire bottom cubicles with opaque Plexiglas walls, allowing access to the underside of their paws. Animals were habituated to this environment for at least 30 minutes before the start of the von Frey filament application. Static allodynia was measured using Semmes-Weinstein von Frey filaments (Stoelting, Wood Dale, IL). Mechanical allodynia was tested by touching the plantar surface of the animals' right and left hind paws with von Frey filaments which deliver a calibrated amount of force (0.07, 0.16, 0.4, 0.6. 1.0, 2.0, 4.0, 6.0 g). […]

Male Sprague Dawley rats = assay: Forced Swim Test (FST); assay type: in vivo, rat
Text: The Forced Swim Test (FST) is a classic, and the most used preclinical behavioral assay to screen compounds with antidepressant-like activity and has high predictive and face validity (Porsolt et al. (1977) Nature 266:730; Borsini and Meli (1988) Psychopharmacology 94:147). The premise of the FST is that when rats are placed into a cylinder filled with water, they will initially try to escape, but over time will become immobile. This increased immobility reflects behavioral despair, modeling a depressive-like state.
Forced Swim Test (FST): In the FST trial, rats were placed in a circular plexiglass container filled with water, with no means of escape. Water temperature was maintained at 22-25° C. and changed for every animal. After an acclimation period, rats were timed for inactivity (failure to struggle), activity, swim time and climbing time. Day 1 consisted of a 15 min acclimation trial, and Day 2 (24 h later) consisted of the 5 min test. A time sampling procedure was employed where animals were observed every 5 sec and scored for immobility, swimming, or climbing. Fluoxetine (10 mg/kg, IP, Sigma Aldrich) or 0.9% sterile saline vehicle (vehicle 3× group) were administered 23.5, 5, and 1 h before testing in the FST. […] The experimenter was blinded to treatment.
Forced Swim Test: In the FST trial, rats were placed in a circular plexiglass container filled with water, with no means of escape. Water temperature was maintained at 22-25° C. and changed for every animal. After an acclimation period, rats were timed for inactivity (failure to struggle), activity, swim time and climbing time. Day 1 consisted of a 15 min acclimation trial, and Day 2 (24 h later) consisted of the 5 min test. A time sampling procedure was employed where animals were observed every 5 sec and scored for immobility, swimming, or climbing. Fluoxetine (10 mg/kg, IP, Sigma Aldrich) or 0.9% sterile saline vehicle (vehicle 3× group) were administered 23.5, 5, and 1 h before testing in the FST. 2C-B (2.5, 10, or 20 mg/kg, IP, Cayman Chemical) or 0.9% saline vehicle (vehicle 1× group) were administered 30 min prior to FST testing. The experimenter was blinded to treatment.
Drug Treatment: Fluoxetine (10 mg/kg, IP, Sigma Aldrich) or 0.9% sterile saline vehicle were administered 23.5, 5, and 1 h before testing in the FST. […] Control animals received fluoxetine alone, methylone alone, or saline vehicle.
Forced Swim Test: In the FST trial, rats were placed in a circular plexiglass container filled with water, with no means of escape. Water temperature was maintained at 22-25° C. and changed for every animal. After an acclimation period, rats were timed for inactivity (failure to struggle), activity, swim time and climbing time. The experimenter and scorer were blind to treatment group. Day 1 consisted of a 15 min acclimation trial, and Day 2 (24 h later) consisted of the 5 min test. A time sampling procedure was employed where animals were observed every 5 sec and scored for immobility, swimming, or climbing.
Control animals received saline vehicle. The dosing schedule and experimental design are found in FIG. 12A.
The FST was performed and scored by an experimenter blind to treatment group according to standard protocols and based on a “modified FST” procedure (Slattery and Cryan (2012) Nat Protoc, 7:1009). Briefly, rats were placed in a circular plexiglass container (29.2 cm diameter, 49.5 cm height) filled with water to a depth of 30 cm so rats could not support themselves by touching the bottom of the tank. Water was maintained at 22-25° C. and was changed for every animal. Day 1 (Training) consisted of a 15 min acclimation trial, and Day 2 (Testing, 24 h later) consisted of the 5 min test. […]

[2] = test system: rats (Sprague Dawley; Flinders Sensitive Line); settings: cited from earlier work
mice = assay: Mouse fear extinction paradigm (PTSD model); assay type: in vivo; settings: MBDB 5 mg/kg IP; day 2
Text: Effective PTSD treatments facilitate the disassociation between a traumatic memory and the patient's fear response, making cues for the traumatic memory evoke less of a fear response. This is modeled in the mouse fear extinction paradigm (see FIG. 9A) which takes place over 3 days. On day 1 (fear conditioning), mice are trained to acquire a “traumatic memory,” namely associating the conditioned stimulus (CS, tone) to the unconditioned stimulus (US, foot shock). On day 2 (extinction training), they are trained to forget the traumatic memory association by presenting the CS 6 times (with no US) in a novel environment. On day 3 (extinction recall), the mice are “asked” if that tone (CS) still elicits a fearful response, as measured by the time spent freezing when the tone is presented. Less time freezing means better extinction recall. Drugs that improve extinction recall reduce freezing time on day 3, and, therefore, show potential as a PTSD treatment.

[3] = test system: serotonergic terminals in the cortex and hippocampus; settings: 25 mg/kg IP every 12 hours for 4 days; 2 weeks post-treatment; cited from earlier work

COc1cc(CCN)c(OC)cc1Br [2C-B, 4-Bromo-2,5-dimethoxyphenethylamine]
animals with complete (maximal) reversal of reserpine-induced pain sensitivity [1]: 100%
serious adverse effects (experienced drug users; self-administered, dose 10 to 20 mg): no serious adverse effects
effect of repeated doses in CIPN model (Male C57Bl/6 mice; repeated doses of 5 mg/kg, once daily days 17-23): sustained beneficial effect
pain thresholds (von Frey) in cisplatin-treated animals (Male C57Bl/6 mice; within 30 min of a single dose, 5 or 20 mg/kg IP, day 17): significantly increased
climbing (FST) (Male Sprague Dawley rats; 2C-B high-dose group only): significantly decreased
swimming (FST) (Male Sprague Dawley rats; single dose of 2C-B 30 minutes before testing): significant increase in swimming

CNCCC(Oc1ccc(C(F)(F)F)cc1)c1ccccc1 (stereo not drawn) [fluoxetine, reference compound]
swimming behavior (FST) (Male Sprague Dawley rats; Example 8): significantly increased swimming behavior

CNCC[C@H](Oc1cccc2ccccc12)c1cccs1 [duloxetine, reference compound]
animals with complete (maximal) reversal of reserpine-induced pain sensitivity [1]: 44%

CN(C)CCc1c[nH]c2cccc(OP(=O)(O)O)c12 [psilocybin]
reduction in immobility (FST) ([2]; Hibicke et al. (2020)): 67%

CCC(Cc1ccc2c(c1)OCO2)NC (racemic) [MBDB, N-methyl-1-(1,3-benzodioxol-5-yl)-2-aminobutane]
serious adverse effects (experienced drug users; self-administered under supervision, dose 100 to 300 mg): no serious adverse effects
extinction acquisition (freezing, first trial of extinction training) (mice): improved extinction acquisition; also recorded: significantly reduced
locomotor activity (mice): small, but significant increase in locomotor activity
immobility (FST) (Male Sprague Dawley rats; MBDB 5-30 mg/kg IP, 30 min before testing): significantly reduced immobility
serotonergic terminals in the cortex and hippocampus destroyed [3]: 55-60%

CNC1(c2ccccc2Cl)CCCCC1=O (stereo not drawn) [ketamine]
reduction in immobility (FST) ([2]; Hibicke et al. (2020)): 30%
reduction in immobility (FST) ([2]; Tizabi et al. (2012)): 60%
reduction in immobility (FST) ([2]; Yang et al. (2013)): 25-55%

CCN(CC)C(=O)[C@@H]1C=C2c3cccc4[nH]cc(c34)C[C@H]2N(C)C1 [LSD, lysergic acid-N,N-diethylamide]
reduction in immobility (FST) ([2]; Hibicke et al. (2020)): 38%
